Assay results from publication PMC10761119, “Phosphorylation-state dependent intraneuronal sorting of Aβ differentially impairs autophagy and the endo-lysosomal system” (Autophagy, 2023).

Key:
Type in all cases: cell-based, mouse
[1] = system: primary cortical neurons; test: Immunocytochemistry of surface associated and internalized Aβ; details: Aβ 500 nM, 4 h; antibody 82E1; ~200 neurons, N = 4
[2] = system: primary cortical neurons; test: Subcellular fractionation by differential centrifugation and Aβ ELISA; details: Aβ 500 nM, 4 h; for Aβ levels in the isolated membrane fraction (16,100 g pellet): ELISA 82E1, n = 6, N = 3
Description: [Worded in the source for another cell line; used here, by the source, with some conditions changed.] SH-SY5Y cells seeded on D1, were treated with Aβ variants (1 μM) on D3 in DMEM/F-12 media without serum and antibiotics. Control treatment included treatment with equal volume of 10 mM NaOH solution used for preparing the Aβ stock solutions, in respective cell culture medium. SH-SY5Y cells, after 16 h of transient expression of the reporter constructs, were treated with different Aβ variants, autophagy modulator substrates and respective controls in DMEM/F-12, FCS^− PS^− media for the mentioned time points. After treatment, cells were washed twice with PBS and with 0.025% trypsin-EDTA in PBS to get rid of cell bound Aβ, followed by subsequent washings with PBS again. Cells were either collected by scraping using a cell-scraper or fixed with 4% PFA-PBS for 15 min at RT, for further immunocytochemistry experiments. Collected treatment media was centrifuged at 1000 g for 5 min, pellet discarded and supernatant frozen at −20°C until further usage.
Cells were collected by scraping and mechanically homogenized in hypotonic D buffer (10 mM Tris-HCl, pH 7.4, 10 mM NaCl, 0.1 mM EGTA, 25 mM glycerol 2-phosphate, 1 mM DTT) containing protease and phosphatase inhibitors by repeated suspension through a 23 G × 1” needle. Post-nuclear supernatant (PNS) was collected by centrifugation of the mechanically homogenized cellular material at 2,000 g for 5 min. The pellet was the nuclear material. […] The nuclear fraction was the supernatant collected after centrifugation at 16,100 g for 15 min. The PNS collected from the first step was centrifuged at 16,100 g for 60 min, and supernatant was used as the crude cytosolic fraction. The pellet contained the membrane materials, which were re-homogenized in hypotonic D buffer and again centrifuged at 16,100 g for 60 min. The supernatant was discarded, pellet was resuspended in STEN-lysis buffer (20 mM Tris-HCl, pH 7.5, 150 mM NaCl, 1 mM EDTA, 1 mM EGTA, 1% Triton X-100, 2.5 mM sodium pyrophosphate [Sigma Aldrich, P1835], 1 mM β-glycerophosphate [Sigma Aldrich, G9422]) containing protease and phosphatase inhibitors, and the membrane fraction was the supernatant collected after centrifugation at 16,100 g for 15 min. The crude cytosolic fraction was then further fractionated at 100,000 g for 70 min at 4°C under vacuum. The resultant supernatant was the soluble cytosolic fraction. The pellet was resuspended in STEN lysis buffer and centrifuged at 16,100 g for 15 min. The resultant supernanant represented the insoluble cytosolic fraction.
Wells were further tapped dry and incubated with 4G8-biotin/82E1-biotin detection antibodies (0.05–0.1 μg/well) at RT for 2 h followed by subsequent washing and incubation with streptavidin conjugated HRP complex (1:5000) for another 2 h. Wells were then washed thoroughly four times and filled with 100 µl of 3,3,5,5-tetramethylbenzidine substrate (TMB; ThermoFisher Scientific, N301) in each well and incubated at 25°C until sufficient blue color developed (time ranged from 2–15 min depending on the different capture antibodies used in the experiment). 100 µl of stop solution (4 M H2SO4) was added to each well. Absorbance values from each well were read at a Tecan plate reader at a wavelength of 450 nm and background measurement at 620 nm. Multiple readings were recorded for a single well and averaged. In each experiment, each sample was analyzed in technical duplicate/triplicate wells as indicated and average values from an independent experiment are presented (Figures 1E, 3G, SA-D and Table S2).

[3] = system: primary cortical neurons; test: Immunocytochemistry colocalization of internalized Aβ with vesicular markers (Mander's overlap coefficient); details: Aβ 500 nM, 4 h, mean ± S.D., n = 6, N = 3; for Mander's overlap coefficient, R, with EEA1-positive vesicles: Aβ stained with 82E1

## amyloid-β phosphorylated at serine residue 8 [p-Ser8Aβ]
[1]
  Fluorescence intensities of Aβ signals in unpermeabilized and permeabilized cells (binding to neuronal membranes and intraneuronal accumulation): highest fluorescence intensities
[2]
  Aβ levels in the isolated membrane fraction (16,100 g pellet): highest levels
[2]; ELISA, compared to npAβ and p-Ser26Aβ
  Aβ levels in the 100,000 g pellet (insoluble cytosolic fraction): significantly higher
[2]; ELISA, compared to p-Ser26Aβ
  Aβ levels in the 100,000 g supernatant (soluble cytosolic fraction): significantly lower
[3]
  Mander's overlap coefficient, R, with EEA1-positive vesicles: 0.58 ± 0.18
  Mander's overlap coefficient, R, with CTSD: 0.30 ± 0.06
  Mander's overlap coefficient, R, with LAMP2: 0.33 ± 0.08
  Mander's overlap coefficient, R, with LC3-positive vesicles: 0.64 ± 0.21
  Mander's overlap coefficient, R, with RAB7-positive late endosomes: 0.33 ± 0.05

## amyloid-β phosphorylated at serine residue 26 [p-Ser26Aβ]
[1]
  Fluorescence intensities of Aβ signals in unpermeabilized and permeabilized cells (binding to neuronal membranes and intraneuronal accumulation): followed by p-Ser26Aβ
[2]
  Aβ levels in the isolated membrane fraction (16,100 g pellet): significantly lower
[2]; ELISA, followed by p-Ser8Aβ and npAβ
  Aβ levels in the total cytosolic fraction (supernatant after 16,100 g spin): highest levels
[3]
  Mander's overlap coefficient, R, with EEA1-positive vesicles: 0.51 ± 0.14
  Mander's overlap coefficient, R, with CTSD: 0.65 ± 0.10
  Mander's overlap coefficient, R, with LAMP2: 0.65 ± 0.13
  Mander's overlap coefficient, R, with LC3-positive vesicles: 0.52 ± 0.09
  Mander's overlap coefficient, R, with RAB7-positive late endosomes: 0.62 ± 0.15

## non-phosphorylated amyloid-β [npAβ, reference compound]
[1]
  Fluorescence intensities of Aβ signals in unpermeabilized and permeabilized cells (binding to neuronal membranes and intraneuronal accumulation): least
[2]
  Aβ levels in the isolated membrane fraction (16,100 g pellet): significantly lower
[3]
  Mander's overlap coefficient, R, with EEA1-positive vesicles: 0.43 ± 0.15
  Mander's overlap coefficient, R, with CTSD: 0.47 ± 0.09
  Mander's overlap coefficient, R, with LAMP2: 0.45 ± 0.12
  Mander's overlap coefficient, R, with LC3-positive vesicles: 0.47 ± 0.09
  Mander's overlap coefficient, R, with RAB7-positive late endosomes: 0.44 ± 0.10
